Measurements as given in ChEMBL document CHEMBL1201862, “PubChem BioAssay data set” (2004).
Active and inactive are the calls of the source.

How the values were obtained:
[1] = biological target: Voltage-gated inwardly rectifying potassium channel KCNH2 (Homo sapiens, UniProt Q12809); conditions: Potency;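 further: confirmatory quantitative high-throughput screen measuring inhibition of hERG channel activity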
Vero [2] = experiment: cells; format: functional; conditions: Chlorocebus sabaeus
Vero [3] = experiment: cells; format: functional, cell-based; conditions: Chlorocebus sabaeus
[4] = biological target: T1, Ubiquitin-conjugating enzyme E2 N (Homo sapiens, UniProt P61088); format: functional
T1 sequence (P61088 whole entry): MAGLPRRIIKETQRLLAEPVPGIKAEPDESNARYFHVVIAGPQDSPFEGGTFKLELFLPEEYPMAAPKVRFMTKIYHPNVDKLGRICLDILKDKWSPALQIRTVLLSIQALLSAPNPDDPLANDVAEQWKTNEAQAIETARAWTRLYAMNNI

[5] = biological target: T1, Ubiquitin-conjugating enzyme E2 N; format: functional; remark: listed apart in the source
Bcl-2-related protein A1 = biological target: T2, Bcl-2-related protein A1 (Mus musculus, UniProt Q07440); format: functional;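 further: confirmatory dose–response counterscreen on Bfl-1, used to check hits from a UBC13 polyubiquitin inhibitor campaign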
T2 sequence (Q07440 whole entry): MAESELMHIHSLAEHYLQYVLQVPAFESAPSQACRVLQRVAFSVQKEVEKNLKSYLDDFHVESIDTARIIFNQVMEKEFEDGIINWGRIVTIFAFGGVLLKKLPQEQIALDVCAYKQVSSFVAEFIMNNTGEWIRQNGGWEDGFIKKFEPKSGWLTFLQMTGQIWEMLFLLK

[6] = biological target: Heat shock protein HSP 90-alpha (Homo sapiens, UniProt P07900); format: functional, organism-based
Cysteine protease ATG4B = biological target: T3, Cysteine protease ATG4B (Homo sapiens, UniProt Q9Y4P1); format: functional;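 further: Fluorescence-based dose-response confirmation assay measuring inhibition of ATG4B activity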
T3 sequence (Q9Y4P1 whole entry): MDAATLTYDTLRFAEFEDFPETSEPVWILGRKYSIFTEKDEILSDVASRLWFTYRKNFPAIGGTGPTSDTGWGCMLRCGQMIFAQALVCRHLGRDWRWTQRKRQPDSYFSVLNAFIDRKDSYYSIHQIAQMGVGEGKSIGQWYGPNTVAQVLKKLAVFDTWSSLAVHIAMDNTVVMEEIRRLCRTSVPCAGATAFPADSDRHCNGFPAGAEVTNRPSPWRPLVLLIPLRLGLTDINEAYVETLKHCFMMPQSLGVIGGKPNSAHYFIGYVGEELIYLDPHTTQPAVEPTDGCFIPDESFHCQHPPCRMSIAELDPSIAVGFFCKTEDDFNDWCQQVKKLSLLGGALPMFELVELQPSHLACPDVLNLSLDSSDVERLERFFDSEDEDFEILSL

Phospholipase A2 = Phospholipase A2 (Homo sapiens, UniProt P04054); format: functional;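 further: confirmatory dose-response counterscreen on phospholipase A2, testing hits that came from an ultra-high-throughput screen for ATG4B inhibitors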
Troponin, cardiac muscle = Troponin, cardiac muscle (Homo sapiens, UniProt P19429+P45379+P63316); experiment: Fluorescence-based biochemical high throughput dose response assay for activators of the calcium sensitivity of cardiac Regulated Thin Filaments (RTF). [Related pubchem assays (depositor defined):AID493008, AID493018, AID504382, AID504383]; format: protein-complex assay
[7] = biological target: T4, Corticotropin-releasing factor receptor 2/Corticotropin-releasing factor-binding protein (Homo sapiens, UniProt P24387+Q13324); experiment: activators of CRF receptor 2 with binding protein – uHTS hits, confirmation (AID 602473); format: functional; conditions: read-out: EC50_Mean
T4 sequence (Q13324 whole entry): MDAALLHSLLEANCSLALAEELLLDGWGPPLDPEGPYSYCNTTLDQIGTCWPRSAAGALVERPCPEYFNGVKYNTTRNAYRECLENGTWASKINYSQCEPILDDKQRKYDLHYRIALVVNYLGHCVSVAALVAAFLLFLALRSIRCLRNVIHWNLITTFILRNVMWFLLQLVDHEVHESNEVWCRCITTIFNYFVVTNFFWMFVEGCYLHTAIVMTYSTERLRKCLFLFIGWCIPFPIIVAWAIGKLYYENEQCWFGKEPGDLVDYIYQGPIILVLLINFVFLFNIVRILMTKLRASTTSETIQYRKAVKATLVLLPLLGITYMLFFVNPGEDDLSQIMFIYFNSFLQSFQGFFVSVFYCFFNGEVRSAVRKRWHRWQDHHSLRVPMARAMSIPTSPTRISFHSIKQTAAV
T4 sequence (P24387 whole entry): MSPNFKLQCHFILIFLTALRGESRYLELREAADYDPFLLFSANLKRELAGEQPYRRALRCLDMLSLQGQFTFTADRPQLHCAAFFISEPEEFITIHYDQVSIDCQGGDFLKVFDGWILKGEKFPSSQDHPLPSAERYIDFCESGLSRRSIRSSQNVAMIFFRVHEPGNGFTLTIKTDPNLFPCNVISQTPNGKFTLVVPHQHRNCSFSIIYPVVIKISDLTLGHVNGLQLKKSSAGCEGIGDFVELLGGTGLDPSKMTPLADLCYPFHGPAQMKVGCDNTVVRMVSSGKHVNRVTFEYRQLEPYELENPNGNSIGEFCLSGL

Cytochrome P450 2C9 = Cytochrome P450 2C9 (Homo sapiens, UniProt P11712)
Cytochrome P450 2C19 = Cytochrome P450 2C19 (Homo sapiens, UniProt P33261); experiment: Cytochrome panel assay with activity outcomes. Panel member name: p450-cyp2c19 Compounds with AC50 equal or less than 10 uM are considered active; format: functional; conditions: read-out: AC50
[8] = biological target: T5, Zinc finger protein mex-5 (Caenorhabditis elegans, UniProt Q9XUB2); experiment: potency of MEX-5 RNA-binding blockers – biochemical, C. elegans, fluorescence polarization, dose response (AID 1960)
T5 sequence (Q9XUB2 whole entry): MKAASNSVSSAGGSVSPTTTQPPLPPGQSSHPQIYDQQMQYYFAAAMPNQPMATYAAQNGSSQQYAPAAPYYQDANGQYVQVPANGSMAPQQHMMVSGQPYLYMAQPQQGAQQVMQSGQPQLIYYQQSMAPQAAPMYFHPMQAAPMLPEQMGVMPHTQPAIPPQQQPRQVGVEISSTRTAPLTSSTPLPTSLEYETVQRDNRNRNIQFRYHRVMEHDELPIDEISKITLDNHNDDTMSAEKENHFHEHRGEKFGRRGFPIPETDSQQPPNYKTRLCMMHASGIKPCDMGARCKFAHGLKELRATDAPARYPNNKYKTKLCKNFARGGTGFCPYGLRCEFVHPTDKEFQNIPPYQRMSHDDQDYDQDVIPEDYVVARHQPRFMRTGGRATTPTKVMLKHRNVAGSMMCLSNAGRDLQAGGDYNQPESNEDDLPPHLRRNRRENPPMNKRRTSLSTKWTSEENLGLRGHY

[9] = biological target: T6, RNA-binding protein pos-1 (Caenorhabditis elegans, UniProt G5EF15); experiment: disruptors of C. elegans POS-1 RNA interaction – biochemical, fluorescence polarization, dose response (AID 1964);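 further: purified POS-1 fused to maltose binding protein made in E. coli; potency of compounds blocking POS-1 binding to fluorescent RNA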
T6 sequence (G5EF15 whole entry): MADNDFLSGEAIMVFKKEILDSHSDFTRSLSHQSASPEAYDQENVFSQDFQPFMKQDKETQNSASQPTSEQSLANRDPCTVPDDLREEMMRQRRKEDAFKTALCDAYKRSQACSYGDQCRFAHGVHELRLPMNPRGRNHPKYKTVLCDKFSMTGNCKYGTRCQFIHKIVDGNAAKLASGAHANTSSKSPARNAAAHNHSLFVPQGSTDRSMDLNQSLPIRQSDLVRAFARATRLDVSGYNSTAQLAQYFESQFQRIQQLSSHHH

Cytochrome P450 1A2 = biological target: T7, Cytochrome P450 1A2 (Homo sapiens, UniProt P05177);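 further: PubChem cytochrome P450 panel assay, CYP1A2 panel member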
T7 sequence (P05177 whole entry): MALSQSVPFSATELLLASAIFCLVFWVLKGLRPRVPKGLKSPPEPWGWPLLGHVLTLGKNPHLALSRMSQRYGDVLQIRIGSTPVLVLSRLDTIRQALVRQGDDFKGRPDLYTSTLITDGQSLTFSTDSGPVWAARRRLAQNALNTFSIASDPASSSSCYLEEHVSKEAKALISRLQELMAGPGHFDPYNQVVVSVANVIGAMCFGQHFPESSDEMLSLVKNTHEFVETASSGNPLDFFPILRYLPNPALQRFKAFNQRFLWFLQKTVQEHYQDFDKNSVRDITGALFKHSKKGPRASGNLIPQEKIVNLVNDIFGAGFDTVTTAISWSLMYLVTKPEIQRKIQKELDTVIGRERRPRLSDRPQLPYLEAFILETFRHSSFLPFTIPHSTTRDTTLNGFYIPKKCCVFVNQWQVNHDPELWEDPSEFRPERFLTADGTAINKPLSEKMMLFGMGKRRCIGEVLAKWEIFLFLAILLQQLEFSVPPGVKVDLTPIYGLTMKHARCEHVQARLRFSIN

Chain of Voltage-gated inwardly rectifying potassium channel KCNH2 (Q12809 whole entry): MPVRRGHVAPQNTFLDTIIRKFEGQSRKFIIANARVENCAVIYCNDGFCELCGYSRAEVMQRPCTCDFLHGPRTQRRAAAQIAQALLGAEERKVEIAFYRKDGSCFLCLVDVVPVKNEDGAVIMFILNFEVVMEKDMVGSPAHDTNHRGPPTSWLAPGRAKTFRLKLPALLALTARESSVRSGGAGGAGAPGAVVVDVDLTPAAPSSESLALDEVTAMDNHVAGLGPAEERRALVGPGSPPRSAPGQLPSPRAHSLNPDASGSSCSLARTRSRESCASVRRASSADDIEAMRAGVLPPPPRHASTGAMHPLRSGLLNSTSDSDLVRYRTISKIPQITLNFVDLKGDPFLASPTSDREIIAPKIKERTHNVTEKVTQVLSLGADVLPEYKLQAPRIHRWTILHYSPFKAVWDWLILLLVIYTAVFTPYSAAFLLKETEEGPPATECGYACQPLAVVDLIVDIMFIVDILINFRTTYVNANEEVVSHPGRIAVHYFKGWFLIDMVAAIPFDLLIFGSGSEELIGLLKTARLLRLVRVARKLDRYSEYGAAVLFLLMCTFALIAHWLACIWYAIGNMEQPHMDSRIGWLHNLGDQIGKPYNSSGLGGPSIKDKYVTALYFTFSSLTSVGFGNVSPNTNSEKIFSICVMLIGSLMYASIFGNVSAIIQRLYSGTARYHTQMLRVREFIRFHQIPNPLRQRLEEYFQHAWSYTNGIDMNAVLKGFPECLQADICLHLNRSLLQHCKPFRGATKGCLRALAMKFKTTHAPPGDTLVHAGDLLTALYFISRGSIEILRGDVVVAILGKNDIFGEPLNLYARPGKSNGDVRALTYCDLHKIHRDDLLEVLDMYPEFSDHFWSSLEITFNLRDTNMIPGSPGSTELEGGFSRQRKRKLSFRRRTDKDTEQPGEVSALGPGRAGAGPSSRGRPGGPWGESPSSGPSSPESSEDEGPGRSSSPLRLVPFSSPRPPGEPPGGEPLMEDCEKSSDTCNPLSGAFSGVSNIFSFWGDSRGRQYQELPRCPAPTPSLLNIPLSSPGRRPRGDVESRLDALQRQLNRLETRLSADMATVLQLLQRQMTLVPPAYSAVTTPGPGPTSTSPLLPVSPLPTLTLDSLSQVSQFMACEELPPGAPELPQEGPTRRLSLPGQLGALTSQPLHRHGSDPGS
Chain of Phospholipase A2 (P04054 whole entry): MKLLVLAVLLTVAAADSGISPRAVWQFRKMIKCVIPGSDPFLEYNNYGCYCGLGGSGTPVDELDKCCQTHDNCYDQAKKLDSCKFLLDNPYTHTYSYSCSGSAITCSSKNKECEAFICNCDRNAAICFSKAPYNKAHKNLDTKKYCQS
Chain of Cytochrome P450 2C9 (P11712 whole entry): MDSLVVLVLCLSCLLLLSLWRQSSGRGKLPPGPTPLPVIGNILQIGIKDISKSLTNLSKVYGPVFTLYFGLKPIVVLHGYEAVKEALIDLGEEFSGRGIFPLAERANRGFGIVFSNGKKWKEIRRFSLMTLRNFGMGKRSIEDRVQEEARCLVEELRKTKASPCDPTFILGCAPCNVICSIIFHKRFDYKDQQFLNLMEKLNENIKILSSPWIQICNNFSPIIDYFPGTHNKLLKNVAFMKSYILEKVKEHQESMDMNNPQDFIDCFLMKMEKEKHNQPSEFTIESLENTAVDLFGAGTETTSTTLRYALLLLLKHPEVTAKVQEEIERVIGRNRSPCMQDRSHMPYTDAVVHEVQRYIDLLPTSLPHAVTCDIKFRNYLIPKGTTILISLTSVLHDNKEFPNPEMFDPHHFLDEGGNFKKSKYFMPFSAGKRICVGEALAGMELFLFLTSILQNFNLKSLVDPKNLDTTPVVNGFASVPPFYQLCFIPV
Chain of Cytochrome P450 2C19 (P33261 whole entry): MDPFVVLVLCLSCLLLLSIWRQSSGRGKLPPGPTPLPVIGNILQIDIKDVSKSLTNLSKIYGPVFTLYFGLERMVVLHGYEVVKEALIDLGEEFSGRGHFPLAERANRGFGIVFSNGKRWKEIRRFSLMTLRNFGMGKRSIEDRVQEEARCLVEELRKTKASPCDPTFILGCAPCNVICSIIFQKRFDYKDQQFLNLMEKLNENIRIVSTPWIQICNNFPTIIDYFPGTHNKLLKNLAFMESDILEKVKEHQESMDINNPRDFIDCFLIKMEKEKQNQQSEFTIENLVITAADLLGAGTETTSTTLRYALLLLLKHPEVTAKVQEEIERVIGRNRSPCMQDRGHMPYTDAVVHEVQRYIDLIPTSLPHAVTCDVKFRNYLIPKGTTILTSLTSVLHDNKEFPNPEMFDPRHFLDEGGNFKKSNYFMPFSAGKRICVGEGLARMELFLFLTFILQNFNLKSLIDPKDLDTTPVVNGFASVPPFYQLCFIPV

Oc1cc2c(cc1O)CN(C(=S)NCCc1ccc(Cl)cc1)CCC2 [CAPSAZEPINE]
AC50 [1]: 11.2 µM (inconclusive)

CCn1c(=O)c2nc(Cl)[nH]c2n(CC)c1=O
CC50 (Vero [2]): > 25 µM (active) | IC50 (Vero [3]): 17 µM (active)

CCN(Cc1ccccc1)S(=O)(=O)c1ccc(C(=O)N(CCCN(C)C)c2nc3cc4c(cc3s2)OCCO4)cc1
IC50 [4]: 2.93 µM (active) | IC50 [5]: 2.81 µM (active) | IC50 (Bcl-2-related protein A1): > 20 µM (inactive)

CCCCCCOC(=O)Sc1nc2ccccc2o1
AC50 [6]: 2.78 µM (active)

CC1CC(C)CN(C(=O)c2ccc(C(=O)c3ccccc3)cc2)C1 (stereo not given)
IC50 (Cysteine protease ATG4B): 10.8 µM (active) | IC50 (Phospholipase A2): 8.32 µM (active)

COc1ccc(C(=O)Nc2cc(C(C)=O)c(/C=C/N(C)C)oc2=O)cc1
EC50 (Troponin, cardiac muscle): 10.5 µM (inactive) | EC50 [7]: 6.69 µM (active) | AC50 (Cytochrome P450 2C9): 22.4 µM (inconclusive) | AC50 (Cytochrome P450 2C19): 10 µM (inconclusive) | EC50 [8]: 54.8 µM (active) | EC50 [9]: 54.1 µM (active) | AC50 (Cytochrome P450 1A2): 15.8 µM (inconclusive)

Oc1c(Br)cc(Br)cc1/C=N/c1ccc2c(c1)OCO2
IC50 (Cysteine protease ATG4B): 4.43 µM (active) | IC50 (Phospholipase A2): 7.68 µM (active)

C=C(C)C(=O)OCCCCCCCCCC
AC50 [1]: 3.55 µM (inconclusive)

CC(O)[C@@H](O)[C@H]1CNc2nc(N)[nH]c(=O)c2N1 (stereo not given in full)
AC50 [1]: 3.55 µM (inconclusive)
